Data set [1] has as its system Staphylococcus aureus Smith. Kind of data set: In vivo activity in intraperitoneally infected mice. Also noted: species or system DDY male mice. The following applies: for ED50: Staphylococcus aureus, sc, mice infected i.p. with 5×10^5 cells/mouse, subcutaneous injection just after infection, read-out: 50% curative dose (CD50); for Therapeutic effect in infected mice: mice infected with pathogenic Gram-positive bacteria. How it is done: Soon after infection, an aqueous solution of the antibiotic PS-5 sodium salt preparation was subcutaneously injected.
Activity of the antibiotic PS-7 obtained above was determined using mice infected with Staphylococcus aureus Smith at 5×10^5 cells a mouse intraperitoneally. Sodium salt of the antibiotic PS-7 was administered to the mice subcutaneously immediately after the infection.
The tritylation product of antibiotic PS-6 was subcutaneously injected just after infection. The 50% curative dose on male DDY mice (SHIZUOKA) was 5.5 mg/kg.
The tritylation product of antibiotic PS-7 was subcutaneously injected just after infection. The 50% curative dose on make DDY mice (SHIZUOKA) was 4.5 mg/kg.

Data set [2] can be described thus: Acute toxicity, intraperitoneal administration. The format is in vivo, DDY male mice. The following applies: mice, 500 mg/kg.
Data set [3] concerns Staphylococcus aureus FDA 209P. Kind of data set: MIC, broth dilution method. It counts as cell-based. The following applies: FDA209P, 20 h, final methanol not above 10%, read-out: Minimum inhibitory concentration. As to the method:
(§1) Sodium salt of the antibiotic PS-7 was dissolved and diluted with the BRAIN HEART INFUSION BROTH "Eiken" at a concentration between 5 μg/ml and 100 μg/ml. The solution was further diluted with the same medium to obtain a series of geometric concentrations. To the serial dilutions were added the seed cultures prepared by shaking culture of various test microorganisms shown in Tab. 5 in the BRAIN HEART INFUSION GROTH at 28° C. for 18 hours, the final cell count being about 1×10^5 /ml. […] The lowest concentration at which no cell growth was observed was the minimum inhibitory concentration of the antibiotic PS-7 on the test microorganism. […] . The minimum inhibitory concentrations on test strains were determined in the same manner as mentioned above. […] For the comparison, the results on the known antibiotics Cephazolin and Cefoxitin are also given in the same table.

Data set [4] concerns Diplococcus pneumoniae Type III. Kind of data set: MIC, broth dilution method. It counts as cell-based. Particulars: Streptococcus pneumoniae, 20 h, 10% of horse blood in the medium, read-out: Minimum inhibitory concentration. As to the method: as §1
A general note: In broth dilution the organism is exposed to a series of concentrations in liquid medium.

In data set [5] the test system is Citrobacter freundii E-9. Kind of data set: MIC, broth dilution method. It counts as cell-based. The following applies: Citrobacter freundii, E9, 20 h, lactamase producing organism, read-out: Minimum inhibitory concentration. As to the method:
as §1

Data set [6] relates to Alcaligenes faecalis B-326. Kind of data set: MIC, broth dilution method. It counts as cell-based. The following applies: Alcaligenes faecalis, B326, 20 h, read-out: Minimum inhibitory concentration. How it is done: as §1
Data set [7] has as its system Enterobacter cloacae E-16. Kind of data set: MIC, broth dilution method. Particulars: Enterobacter cloacae, E16, 20 h, lactamase producing organism, read-out: Minimum inhibitory concentration. The format is cell-based. As to the method:
Sodium salt of the antibiotic PS-7 was dissolved and diluted with the BRAIN HEART INFUSION BROTH "Eiken" at a concentration between 5 μg/ml and 100 μg/ml. The solution was further diluted with the same medium to obtain a series of geometric concentrations. To the serial dilutions were added the seed cultures prepared by shaking culture of various test microorganisms shown in Tab. 5 in the BRAIN HEART INFUSION GROTH at 28° C. for 18 hours, the final cell count being about 1×10^5 /ml. […] The lowest concentration at which no cell growth was observed was the minimum inhibitory concentration of the antibiotic PS-7 on the test microorganism. […] The minimum inhibitory concentrations on test strains were determined in the same manner as mentioned above.

Data set [8] deals with Gram-positive and Gram-negative bacteria. Kind of data set: Antibiotic spectra (summary in words). It counts as cell-based. The following applies: for Antibiotic activity against Gram-negative bacteria resistant to β-lactam antibiotics: genera Citrobacter, Proteus, Klebsiella, Enterobacter, Serratia as named at the place; for Antibiotic activity against Gram-positive bacteria: genera Staphylococcus, Diplococcus, Streptococcus, Bacillus as named at the place.

Data set [9] concerns Klebsiella pneumoniae K-2. Kind of data set: MIC, broth dilution method. The following applies: Klebsiella pneumoniae, K2, 20 h, read-out: Minimum inhibitory concentration.
Another data set can be described thus: Solubility. It counts as physicochemical. The following applies: 5 mg in 0.1 ml of solvent, shaking, 20° C.; for Solubility in organic solvents: solvents named in the value. An excerpt:
The results are as shown as below:
The results are as shown below:

In data set [10] the test system is Streptococcus pyogenes NY-5. Kind of data set: MIC, broth dilution method. The following applies: Streptococcus pyogenes, NY5, 20 h, read-out: Minimum inhibitory concentration.
Data set [11] is described as follows: Stability (general statements). It counts as physicochemical. Particulars: general statement.
For data set [12], the system named is Proteus vulgaris P-5. Kind of data set: MIC, broth dilution method. The following applies: Proteus vulgaris, P5, 20 h, read-out: Minimum inhibitory concentration.
A further data set relates to Serratia marcescens S-18. Kind of data set: Potentiating and synergistic effect, pulp disc inhibition zone on agar plate. The format is cell-based. How it is done: (§2) 10 ml of 2.5 folds diluted nutrient agar (pH 7.0) containing 50 μg/ml of penicillin G or cephaloridine was seeded with the β-lactamase producing and β-lactam-resistant microorganisms and poured in a 9 cm Petri dish to provide the bio-assay agar plate. On this assay plate, 8 mm of pulp discs each containing 20 μl of antibiotic PS-6 solution at the concentration of 240 μg/ml were placed and incubated at 35° C. for 18 hours before reading the inhibition zones. A control assay plate was similarly prepared without penicillin G or cephaloridine. As reference antibiotics, 10,000 μg/ml of penicillin G or 20 μl of cephaloridine were disc-assayed under the same conditions.

For data set [13], the system named is Citrobacter freundii E-9. The data set is described as above. It counts as cell-based. As to the method:
as §2

Data set [14] deals with β-lactamase-producing, β-lactam-resistant bacteria. Kind of data set: Increase of the antibiotic activity of other antibiotics (summary in words). It counts as cell-based. Particulars: β-lactamase-producing bacteria such as Proteus vulgaris, Serratia marcescens. As to the method: (§3) 10 ml of 2.5 folds diluted nutrient agar (pH 7.0) containing 50 μg/ml of penicillin G or cephaloridine was seeded with the β-lactamase producing and β-lactam-resistant microorganisms and poured in a 9 cm Petri dish to provide the bio-assay agar plate. […] A control assay plate was similarly prepared without penicillin G or cephaloridine. As reference antibiotics, 10,000 μg/ml of penicillin G or 20 μl of cephaloridine were disc-assayed under the same conditions.
(§4) Cepholoridine was added to a 2.5-times diluted nutrient agar, pH 7.0 and the medium was inoculated with a β-lactam-producing strain that produceds β-lactamase. Ten ml of the medium was spread and solidified in a petri dish of 9 cm in diameter to prepare an assay plate. […] Each 20 μl of the solution and its 2- and 4-times diluted solutions was soaked in a pulp disc of 8 mm in diameter. To the surface of the above nutrient agar was placed the pulp disc and the size of the growth inhibitory zone around the disc was examined after incubation at 35° C. for 18 hours. […] In addition, for the comparison, a similar experiment was also performed with a pulp disk soaked with 20 μl of 10,000 μg/ml Penicillin G or Cepholoridine solution in place of the antibiotic PS-7.

The test system of data set [15] is Proteus vulgaris P-5. Kind of data set: Potentiating and synergistic effect, pulp disc inhibition zone on agar plate. It counts as cell-based. How it is done: as §3, §4
Where [16] appears, read: Table 6, agar containing 50 μg/ml of cephaloridine, disc 20 μl, PS-6 240 μg/ml, reference antibiotics 10,000 μg/ml.
[17] abbreviates: Table 6, agar containing 50 μg/ml of penicillin G, disc 20 μl, PS-6 240 μg/ml, reference antibiotics 10,000 μg/ml.

Converted amounts (≈) assume the structure as drawn. “Also recorded” adds a separate entry of the source. Where two headings read alike, the source gives them in different places.

Turning to `CC(=O)NCCSC1=C(C(=O)OC(c2ccccc2)(c2ccccc2)c2ccccc2)N2C(=O)C(C(C)C)C2C1` (stereo not drawn) [Antibiotic PS-6 trityl ester], the ED50 in [1] is 5.5 mg/kg. Also, the “Therapeutic effect in infected mice” value in [1] is “marked therapeutic effect”. Also, in data set [2], the Acute toxicity result was “no acute toxicity”. In addition, the MIC in data set [3] (Table 9, ester dissolved in methanol) amounted to 0.33 µg/mL (≈ 0.595 µM); in [4] (Table 9), 0.33 µg/mL (≈ 0.595 µM); in the data set on Citrobacter freundii E-9 [5] (Table 9) it was 12.5 µg/mL (≈ 22.5 µM); in [6] (Table 9), 1.34 µg/mL (≈ 2.42 µM); in data set [7] (Table 9), 25 µg/mL (≈ 45.1 µM); in data set [9], 20 µg/mL (≈ 36.1 µM). Besides, the MIC worked out at 0.33 µg/mL (≈ 0.595 µM) in [10] and 25 µg/mL (≈ 45.1 µM) in the data set with Proteus vulgaris P-5 [12]. Further, the “Antibiotic activity against Gram-negative bacteria of the genera Klebsiella, Proteus” value in [8] is given as “good activity”. In addition, in [8], the “Antibiotic activity against Gram-negative bacteria of the genus Alcaligenes (Comamonas)” value is “very strong activity”. Further, the “Antibiotic activity against Gram-negative bacteria resistant to β-lactam antibiotics” value in [8] is reported as “strong activity”; in data set [8] (listed as trityl ester of antibiotic PS-6) it was “strong antibiotic activity”. Further, in data set [8], the “Antibiotic activity against Gram-positive bacteria” value is given as “very strong activity”. For the same compound, in “Solubility”, the Solubility in water entry is listed as “Substantially insoluble”. In “Solubility”, the “Solubility in organic solvents” value was “Substantially insoluble in water and n-hexane; also recorded: Highly soluble in benzene, ethyl acetate, chloroform, methanol, ethanol, acetone, dimethylformamide (DMF) and dimethylsulfoxide (DMSO)”. Also, the Stability entry in data set [11] is recorded as “more stable than antibiotic PS-6 or PS-7”.
With `CCC1C(=O)N2C(C(=O)OC(c3ccccc3)(c3ccccc3)c3ccccc3)=C(SC=CNC(C)=O)CC12` (stereo not drawn) [Antibiotic PS-7 trityl ester], the ED50 in data set [1] is 4.5 mg/kg. In addition, the “Therapeutic effect in infected mice” value in data set [1] was “marked therapeutic effect”. For the same compound, the Acute toxicity result in data set [2] is listed as “no acute toxicity”. Further, the MIC was determined as 0.16 µg/mL (≈ 0.297 µM) in data set [3] (Table 10, ester dissolved in methanol); 0.16 µg/mL (≈ 0.297 µM) in data set [4] (Table 10); 6.25 µg/mL (≈ 11.6 µM) in the data set on Citrobacter freundii E-9 [5] (Table 10); 1.34 µg/mL (≈ 2.49 µM) in data set [6] (Table 10); 25 µg/mL (≈ 46.4 µM) in data set [7] (Table 10); 10 µg/mL (≈ 18.6 µM) in data set [9]. Further, the MIC in [10] was found to be 0.16 µg/mL (≈ 0.297 µM); with Proteus vulgaris P-5 [12], 25 µg/mL (≈ 46.4 µM). Moreover, the “Antibiotic activity against Gram-negative bacteria of the genera Klebsiella, Proteus” value in data set [8] is “good activity”. Besides, in data set [8], the “Antibiotic activity against Gram-negative bacteria of the genus Alcaligenes (Comamonas)” value is “very strong activity”. Moreover, the “Antibiotic activity against Gram-negative bacteria resistant to β-lactam antibiotics” value in data set [8] is listed as “strong activity”; in [8] (listed as trityl ester of antibiotic PS-7) it was “strong antibiotic activity”. Also, the “Antibiotic activity against Gram-positive bacteria” value in data set [8] is “very strong activity”. The Solubility in water result in the data set “Solubility” is listed as “Substantially insoluble”. Besides, in the data set “Solubility”, the “Solubility in organic solvents” value is “Highly soluble in benzene ethyl acetate, chloroform, methanol, ethanol, acetone, dimethylformamide (DMF) and dimethylsulfoxide (DMSO); also recorded: Substantially insoluble in water and n-hexane”. Further, the Stability result in data set [11] is “more stable than antibiotic PS-6 or PS-7”.
As to `CC1(C)S[C@@H]2[C@H](NC(=O)Cc3ccccc3)C(=O)N2[C@H]1C(=O)O` [penicillin G], the zone of inhibition at 240 µg/mL is 0 mm in the data set on Serratia marcescens S-18 (Serratia marcescens, S18, 18 h, read-out: Inhibition zone, Control); 0 mm in the data set on Citrobacter freundii E-9 [13] (Citrobacter freundii, E9, 18 h, read-out: Inhibition zone, Control); 15 mm with Proteus vulgaris P-5 [15] (Proteus vulgaris, P5, 18 h, read-out: Inhibition zone, Control). The “Inhibition zone, with cephaloridine” value is given as 0.0 mm in the data set with Serratia marcescens S-18 (setting [16]), 0.0 mm with Citrobacter freundii E-9 [13] (setting [16]) and 15.0 mm in the data set with Proteus vulgaris P-5 [15] (setting [16]). In addition, the “Inhibition zone, with penicillin G” value in the data set on Serratia marcescens S-18 (setting [17]) is 0.0 mm; in the data set on Citrobacter freundii E-9 [13] (setting [17]) it was 0.0 mm; in the data set on Proteus vulgaris P-5 [15] (setting [17]), 15.0 mm. Further, the “Synergistic enhancement of the activity of penicillin G or cephaloridine (β-lactam antibiotics)” value in data set [14] is given as “no synergistic effect”; in [14] (listed as Penicillin G), “No enhancement of antimicrobial activity”. Further, the zone of inhibition at 10000 µg/mL in the data set with Proteus vulgaris P-5 [15] (Proteus vulgaris, P5, 18 h, read-out: Diameter of inhibitory zone, No addition) was found to be 15 mm. Besides, in the data set on Proteus vulgaris P-5 [15] (Table 8, comparison disc 20 μl of 10,000 μg/ml, cephaloridine in the agar), the “Diameter of inhibitory zone, Cephaloridine-added” value stood at 15.0 mm.
